For 30 compounds, IC50 results are on record in patent US9546173B2 (Novartis AG, priority 2012, dated 2017).

The target in the test is activated ERK2 (Homo sapiens (Human), UniProt P28482). Description: Activated ERK2 kinase assay (AlphaScreen, ERKtide peptide phosphorylation). The test is classed as biochemical. Conditions: […] ERK2, 200 nM ERKtide peptide, 35 μM ATP, 30 min preincubation; read-out: ERK2 IC50.
Sequence of activated ERK2 (P28482 whole entry): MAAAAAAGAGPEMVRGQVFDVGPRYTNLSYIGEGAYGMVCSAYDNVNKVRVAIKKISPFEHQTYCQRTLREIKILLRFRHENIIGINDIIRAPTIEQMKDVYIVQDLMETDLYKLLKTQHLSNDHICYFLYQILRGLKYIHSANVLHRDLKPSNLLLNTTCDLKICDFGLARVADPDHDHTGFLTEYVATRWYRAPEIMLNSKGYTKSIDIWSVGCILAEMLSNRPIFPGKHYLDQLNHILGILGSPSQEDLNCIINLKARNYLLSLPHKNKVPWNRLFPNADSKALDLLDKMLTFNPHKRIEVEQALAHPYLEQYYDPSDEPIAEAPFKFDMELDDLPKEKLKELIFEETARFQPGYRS
For `CCCS(=O)(=O)c1cccc(CNC(=O)N2Cc3nc(NC4CCOCC4)ncc3C2(C)C)c1` [compound 110, 5,5-dimethyl-N-(3-(propylsulfonyl)benzyl)-2-((tetrahydro-2H-pyran-4-yl)amino)-5H-pyrrolo[3,4-d]pyrimidine-6(7H)-carboxamide], the IC50 was found to be 39 nM. Consider `CCS(=O)(=O)c1cccc(CNC(=O)N2Cc3nc(NC4CCOCC4)ncc3C2(C)C)c1` [compound 111, N-(3-(ethylsulfonyl)benzyl)-5,5-dimethyl-2-((tetrahydro-2H-pyran-4-yl)amino)-5H-pyrrolo[3,4-d]pyrimidine-6(7H)-carboxamide], for which the 50% inhibitory concentration (IC50) worked out at 16 nM. For `CC1(C)c2cnc(NC3CCOCC3)nc2CN1C(=O)NCc1ccccc1S(C)(=O)=O` [compound 112, 5,5-dimethyl-N-(2-(methylsulfonyl)benzyl)-2-((tetrahydro-2H-pyran-4-yl)amino)-5H-pyrrolo[3,4-d]pyrimidine-6(7H)-carboxamide] the value was 806 nM; for `Cc1cccc(S(=O)(=O)N2CCC[C@@H](NC(=O)N3Cc4nc(NC5CCOCC5)ncc4C3(C)C)C2)c1` [compound 113, (R)-5,5-dimethyl-2-((tetrahydro-2H-pyran-4-yl)amino)-N-(1-(m-tolylsulfonyl)piperidin-3-yl)-5H-pyrrolo[3,4-d]pyrimidine-6(7H)-carboxamide], 45 nM.

For `Cc1ccc(S(=O)(=O)N2CCC[C@@H](NC(=O)N3Cc4nc(NC5CCOCC5)ncc4C3(C)C)C2)cc1` [compound 114, (R)-5,5-dimethyl-2-((tetrahydro-2H-pyran-4-yl)amino)-N-(1-tosylpiperidin-3-yl)-5H-pyrrolo[3,4-d]pyrimidine-6(7H)-carboxamide], the 50% inhibitory concentration (IC50) came to 176 nM. For `C[C@@H](NC(=O)N1Cc2nc(NC3CCOCC3)ncc2C1(C)C)c1cc(F)cc(S(C)(=O)=O)c1` [compound 115, (R)-N-(1-(3-fluoro-5-(methylsulfonyl)phenyl)ethyl)-5,5-dimethyl-2-((tetrahydro-2H-pyran-4-yl)amino)-5H-pyrrolo[3,4-d]pyrimidine-6(7H)-carboxamide] the value was 2 nM; for `C[C@H](NC(=O)N1Cc2nc(NC3CCOCC3)ncc2C1(C)C)c1cc(F)cc(S(C)(=O)=O)c1` [compound 116, (S)-N-(1-(3-fluoro-5-(methylsulfonyl)phenyl)ethyl)-5,5-dimethyl-2-((tetrahydro-2H-pyran-4-yl)amino)-5H-pyrrolo[3,4-d]pyrimidine-6(7H)-carboxamide], 457 nM; for `CC1(C)c2cnc(NC3CCOCC3)nc2CN1C(=O)N[C@H](CO)c1cccc(S(C)(=O)=O)c1` [compound 117, (S)-N-(2-hydroxy-1-(3-(methylsulfonyl)phenyl)ethyl)-5,5-dimethyl-2-((tetrahydro-2H-pyran-4-yl)amino)-5H-pyrrolo[3,4-d]pyrimidine-6(7H)-carboxamide], 7 nM. For `CC1(C)c2cnc(NC3CCOCC3)nc2CN1C(=O)N[C@@H]1CCCN(S(=O)(=O)c2cccc(Cl)c2)C1` [compound 118, (R)-N-(1-((3-chlorophenyl)sulfonyl)piperidin-3-yl)-5,5-dimethyl-2-((tetrahydro-2H-pyran-4-yl)amino)-5H-pyrrolo[3,4-d]pyrimidine-6(7H)-carboxamide] the value was 23 nM.

Take `CC1(C)c2cnc(NC3CCOCC3)nc2CN1C(=O)N[C@@H]1CCCN(S(=O)(=O)c2ccc(Cl)cc2)C1` [compound 119, (R)-N-(1-((4-chlorophenyl)sulfonyl)piperidin-3-yl)-5,5-dimethyl-2-((tetrahydro-2H-pyran-4-yl)amino)-5H-pyrrolo[3,4-d]pyrimidine-6(7H)-carboxamide]: the IC50 was 156 nM.

In the case of `CC1(C)c2cnc(NC3CCOCC3)nc2CN1C(=O)NCc1ccccc1F` [compound 120, N-(2-fluorobenzyl)-5,5-dimethyl-2-((tetrahydro-2H-pyran-4-yl)amino)-5H-pyrrolo[3,4-d]pyrimidine-6(7H)-carboxamide], the IC50 was 158 nM. For `CC1(C)c2cnc(NC3CCOCC3)nc2CN1C(=O)NCc1ccc(C(F)(F)F)cc1` [compound 121, 5,5-dimethyl-2-((tetrahydro-2H-pyran-4-yl)amino)-N-(4-(trifluoromethyl)benzyl)-5H-pyrrolo[3,4-d]pyrimidine-6(7H)-carboxamide] the value was 10 nM. Turning to `CC1(C)c2cnc(NC3CCOCC3)nc2CN1C(=O)NCc1ccc(C#N)cc1` [compound 122, N-(4-cyanobenzyl)-5,5-dimethyl-2-((tetrahydro-2H-pyran-4-yl)amino)-5H-pyrrolo[3,4-d]pyrimidine-6(7H)-carboxamide], the IC50 was determined as 38 nM.

With `CC1(C)c2cnc(NC3CCOCC3)nc2CN1C(=O)NCc1ccc(Br)cc1` [compound 123, N-(4-bromobenzyl)-5,5-dimethyl-2-((tetrahydro-2H-pyran-4-yl)amino)-5H-pyrrolo[3,4-d]pyrimidine-6(7H)-carboxamide], the IC50 stood at 7 nM. For `CC1(C)c2cnc(NC3CCOCC3)nc2CN1C(=O)NCc1ccc(Cl)c(F)c1` [compound 124, N-(4-chloro-3-fluorobenzyl)-5,5-dimethyl-2-((tetrahydro-2H-pyran-4-yl)amino)-5H-pyrrolo[3,4-d]pyrimidine-6(7H)-carboxamide] the value was 6 nM; for `COc1ccc(CNC(=O)N2Cc3nc(NC4CCOCC4)ncc3C2(C)C)cc1` [compound 125, N-(4-methoxybenzyl)-5,5-dimethyl-2-((tetrahydro-2H-pyran-4-yl)amino)-5H-pyrrolo[3,4-d]pyrimidine-6(7H)-carboxamide], 56 nM.

Regarding `CC1(C)c2cnc(NC3CCOCC3)nc2CN1C(=O)NCc1ccc(Cl)c(Cl)c1` [compound 126, N-(3,4-dichlorobenzyl)-5,5-dimethyl-2-((tetrahydro-2H-pyran-4-yl)amino)-5H-pyrrolo[3,4-d]pyrimidine-6(7H)-carboxamide], the IC50 is 1 nM. For `Cc1cccc([C@@H](CO)NC(=O)N2Cc3nc(NC4CCOCC4)ncc3C2(C)C)c1` [compound 127, (S)-N-(2-hydroxy-1-(m-tolyl)ethyl)-5,5-dimethyl-2-((tetrahydro-2H-pyran-4-yl)amino)-5H-pyrrolo[3,4-d]pyrimidine-6(7H)-carboxamide] the value was 16 nM; for `CC1(C)c2cnc(NC3CCOCC3)nc2CN1C(=O)N[C@H](CO)c1cccc(F)c1` [compound 128, (S)-N-(1-(3-fluorophenyl)-2-hydroxyethyl)-5,5-dimethyl-2-((tetrahydro-2H-pyran-4-yl)amino)-5H-pyrrolo[3,4-d]pyrimidine-6(7H)-carboxamide], 9 nM; for `Cc1ccc(CNC(=O)N2Cc3nc(NC4CCOCC4)ncc3C2(C)C)cc1` [compound 129, 5,5-dimethyl-N-(4-methylbenzyl)-2-((tetrahydro-2H-pyran-4-yl)amino)-5H-pyrrolo[3,4-d]pyrimidine-6(7H)-carboxamide], 21 nM. For the compound `CC1(C)c2cnc(NC3CCOCC3)nc2CN1C(=O)NCc1cccc(S(=O)(=O)C2CC2)c1` [compound 130, N-(3-(cyclopropylsulfonyl)benzyl)-5,5-dimethyl-2-((tetrahydro-2H-pyran-4-yl)amino)-5H-pyrrolo[3,4-d]pyrimidine-6(7H)-carboxamide], the IC50 turned out to be 71 nM. For `C[C@@H](NC(=O)N1Cc2nc(NC3CCOCC3)ncc2C1(C)C)c1cccc(S(C)(=O)=O)c1` [compound 131, (R)-5,5-dimethyl-N-(1-(3-(methylsulfonyl)phenyl)ethyl)-2-((tetrahydro-2H-pyran-4-yl)amino)-5H-pyrrolo[3,4-d]pyrimidine-6(7H)-carboxamide] the value was 9 nM; for `CC1(C)c2cnc(NC3CCOCC3)nc2CN1C(=O)NCc1ccc(SC(F)(F)F)cc1` [compound 132, 5,5-dimethyl-2-((tetrahydro-2H-pyran-4-yl)amino)-N-(4-((trifluoromethyl)thio)benzyl)-5H-pyrrolo[3,4-d]pyrimidine-6(7H)-carboxamide], 11 nM; for `CC1(C)c2cnc(NC3CCOCC3)nc2CN1C(=O)NCc1ccc(Oc2ccccc2)cc1` [compound 133, 5,5-dimethyl-N-(4-phenoxybenzyl)-2-((tetrahydro-2H-pyran-4-yl)amino)-5H-pyrrolo[3,4-d]pyrimidine-6(7H)-carboxamide], 11 nM. For `CC1(C)c2cnc(NC3CCOCC3)nc2CN1C(=O)NCc1ccc([S+]([O-])C(F)(F)F)cc1` (stereo not drawn) [compound 134, 5,5-dimethyl-2-((tetrahydro-2H-pyran-4-yl)amino)-N-(4-((trifluoromethyl)sulfinyl)benzyl)-5H-pyrrolo[3,4-d]pyrimidine-6(7H)-carboxamide] the value was 39 nM; for `CC1(C)c2cnc(NC3CCOCC3)nc2CN1C(=O)NCc1cccc(C#N)c1` [compound 135, N-(3-cyanobenzyl)-5,5-dimethyl-2-((tetrahydro-2H-pyran-4-yl)amino)-5H-pyrrolo[3,4-d]pyrimidine-6(7H)-carboxamide], 38 nM. Turning to `C[C@@H](NC(=O)N1Cc2nc(NC3CCOCC3)ncc2C1(C)C)c1ccc(C#N)cc1` [compound 136, (R)-N-(1-(4-cyanophenyl)ethyl)-5,5-dimethyl-2-((tetrahydro-2H-pyran-4-yl)amino)-5H-pyrrolo[3,4-d]pyrimidine-6(7H)-carboxamide], the IC50 turned out to be 21 nM. For `CC1(C)c2cnc(NC3CCOCC3)nc2CN1C(=O)NCc1ccc(S(=O)(=O)C(F)(F)F)cc1` [compound 137, 5,5-dimethyl-2-((tetrahydro-2H-pyran-4-yl)amino)-N-(4-((trifluoromethyl)sulfonyl)benzyl)-5H-pyrrolo[3,4-d]pyrimidine-6(7H)-carboxamide] the value was 19 nM; for `CC1(C)c2cnc(NC3CCOCC3)nc2CN1C(=O)N[C@H](CCO)c1ccccc1` [compound 138, (R)-N-(3-hydroxy-1-phenylpropyl)-5,5-dimethyl-2-((tetrahydro-2H-pyran-4-yl)amino)-5H-pyrrolo[3,4-d]pyrimidine-6(7H)-carboxamide], 73 nM; for `C[C@@H](NC(=O)N1Cc2nc(NC3CCOCC3)ncc2C1(C)C)c1ccc(S(C)(=O)=O)cc1` [compound 139, (R)-5,5-dimethyl-N-(1-(4-(methylsulfonyl)phenyl)ethyl)-2-((tetrahydro-2H-pyran-4-yl)amino)-5H-pyrrolo[3,4-d]pyrimidine-6(7H)-carboxamide], 32 nM.
